ChEMBL document CHEMBL3351378, “Phenyl acetate derivatives, fluorine-substituted on the phenyl group, as rapid recovery hypnotic agents with reflex depression” (Eur J Med Chem, 2015)
The source made the active and inactive calls. The rule behind the calls is not given here.

Experiments:
Rattus norvegicus [1] = test: Induction of hypnotic activity in iv dosed Sprague-Dawley rat assessed as loss of righting reflex; assay type: functional
Rattus norvegicus [2] = test: Induction of hypnotic activity in iv dosed Sprague-Dawley rat assessed as time duration of loss of righting reflex; assay type: functional
[3] = Therapeutic index, ratio of […] for Sprague-Dawley rat by rotarod test to HD50 for hypnotic activity in iv dosed Sprague-Dawley rat; assay type: organism-based; settings: in vivo, read-out: TI
[4] = target: Glutamate NMDA receptor (Rattus norvegicus) (UniProt P35439+Q00959+Q00960+Q00961+Q62645+Q8VHN2+Q9R1M7); test: Displacement of [3H]MK801 from NMDA receptor in Sprague-Dawley rat cerebral cortex membrane at 50 umol by liquid scintillation counting; assay type: tissue-based
[5] = Toxicity in Sprague-Dawley rat assessed as motor coordination by rotarod test; assay type: organism-based; settings: in vivo
Rattus norvegicus [6] = test: Induction of hypnotic activity in iv dosed Sprague-Dawley rat assessed as reflex depression 20 secs following injection; assay type: functional, organism-based
Rattus norvegicus [7] = test: Induction of hypnotic activity in iv dosed Sprague-Dawley rat assessed as reflex depression 10 secs following injection; assay type: functional, organism-based
Rattus norvegicus [8] = test: Induction of hypnotic activity in iv dosed Sprague-Dawley rat assessed as reflex depression 120 secs following injection; assay type: functional, organism-based
Rattus norvegicus [9] = test: Induction of hypnotic activity in iv dosed Sprague-Dawley rat assessed as reflex depression 180 secs following injection; assay type: functional, organism-based
Rattus norvegicus [10] = test: Induction of hypnotic activity in Sprague-Dawley rat assessed as recovery time to walking at 5.6 mg/kg/min after 20 mins to 3 hrs; assay type: functional, organism-based
Rattus norvegicus [11] = test: Induction of hypnotic activity in iv dosed Sprague-Dawley rat assessed as reflex depression 60 secs following injection; assay type: functional, organism-based
Rattus norvegicus [12] = test: Induction of hypnotic activity in iv dosed Sprague-Dawley rat assessed as reflex depression 30 secs following injection; assay type: functional, organism-based

## CCCOC(=O)Cc1cc(OC)c(OCC(=O)N(CC)CC)cc1F
Rattus norvegicus [1]
  HD50: 15.8 mg/kg
Rattus norvegicus [2]
  Time: 79.3 s
[3]
  selectivity ratio: 12.6
[4]
  Activity: inactive
[5]
  TD50: 199 mg/kg

## CC(C)c1cccc(C(C)C)c1O [PROPOFOL]
Rattus norvegicus [1]
  HD50: 5.3 mg/kg
Rattus norvegicus [2]
  Time: 349.3 s
[3]
  selectivity ratio: 5.9
[5]
  TD50: 30.7 mg/kg

## CCCOC(=O)Cc1cc(F)c(OCC(=O)N(CC)CC)c(OCC)c1
Rattus norvegicus [1]
  HD50: 14.8 mg/kg
Rattus norvegicus [2]
  Time: 76.6 s
[3]
  selectivity ratio: 11.8
[4]
  Activity: inactive
[5]
  TD50: 175 mg/kg

## CCN(CC)C(=O)COc1ccc(CC(=O)OCC(F)(F)F)c(F)c1OC
Rattus norvegicus [1]
  HD50: 22.8 mg/kg
Rattus norvegicus [2]
  Time: 88.7 s
[3]
  selectivity ratio: 8.1
[4]
  Activity: inactive
[5]
  TD50: 185 mg/kg

## CCOc1c(OCC(=O)N(CC)CC)ccc(CC(=O)OC(C)C(F)(F)F)c1F (stereo not given)
Rattus norvegicus [1]
  HD50: 24.6 mg/kg
Rattus norvegicus [2]
  Time: 89.8 s
[3]
  selectivity ratio: 7.4
[4]
  Activity: inactive
[5]
  TD50: 182 mg/kg

## CCCCOC(=O)Cc1cc(OCC)c(OCC(=O)N(CC)CC)cc1F
Rattus norvegicus [1]
  HD50: 9.7 mg/kg
Rattus norvegicus [2]
  Time: 158.3 s
[3]
  selectivity ratio: 11.2
[4]
  Activity: inactive
[5]
  TD50: 109 mg/kg

## CCOc1cc(CC(=O)OC(C)C(F)(F)F)c(F)cc1OCC(=O)N(CC)CC (stereo not given)
Rattus norvegicus [1]
  HD50: 11.6 mg/kg
Rattus norvegicus [2]
  Time: 238.3 s
[3]
  selectivity ratio: 10.7
[4]
  Activity: inactive
[5]
  TD50: 124 mg/kg

## CCCOC(=O)Cc1ccc(OCC(=O)N(CC)CC)c(OCC)c1 [AZD-3043]
Rattus norvegicus [6]
  Activity: Active
Rattus norvegicus [7]
  Activity: Active
Rattus norvegicus [1]
  HD50: 7.9 mg/kg
Rattus norvegicus [2]
  Time: 74.2 s
[3]
  selectivity ratio: 10.1
[4]
  Activity: inactive
[5]
  TD50: 82.8 mg/kg

## CCOC(=O)Cc1cc(OC)c(OCC(=O)N(CC)CC)cc1F
Rattus norvegicus [1]
  HD50: 10 mg/kg
Rattus norvegicus [2]
  Time: 82.2 s
[3]
  selectivity ratio: 11.3
[4]
  Activity: inactive
[5]
  TD50: 113 mg/kg

## CCOc1c(OCC(=O)N(CC)CC)ccc(CC(=O)OC(C)C)c1F
Rattus norvegicus [1]
  HD50: 17.9 mg/kg
Rattus norvegicus [2]
  Time: 102.9 s
[3]
  selectivity ratio: 9.2
[4]
  Activity: inactive
[5]
  TD50: 165 mg/kg

## CCOc1cc(CC(=O)OCC(F)(F)F)c(F)cc1OCC(=O)N(CC)CC
Rattus norvegicus [1]
  HD50: 9.8 mg/kg
Rattus norvegicus [2]
  Time: 186.1 s
[3]
  selectivity ratio: 11.5
[4]
  Activity: inactive
[5]
  TD50: 113 mg/kg

## CCOc1cc(CC(=O)OC(C)C(F)(F)F)cc(F)c1OCC(=O)N(CC)CC (stereo not given)
Rattus norvegicus [1]
  HD50: 18.3 mg/kg
Rattus norvegicus [2]
  Time: 88.8 s
[3]
  selectivity ratio: 9.9
[4]
  Activity: inactive
[5]
  TD50: 181 mg/kg

## CCOC(=O)Cc1cc(F)c(OCC(=O)N(CC)CC)c(OCC)c1
Rattus norvegicus [1]
  HD50: 18.5 mg/kg
Rattus norvegicus [2]
  Time: 66.5 s
[3]
  selectivity ratio: 12.1
[4]
  Activity: inactive
[5]
  TD50: 224 mg/kg

## CCN(CC)C(=O)COc1cc(F)c(CC(=O)OC(C)C)cc1OC
Rattus norvegicus [1]
  HD50: 11.5 mg/kg
Rattus norvegicus [2]
  Time: 86.6 s
[3]
  selectivity ratio: 13.5
[4]
  Activity: inactive
[5]
  TD50: 155 mg/kg

## CCCOc1cc(CC(=O)OC(C)C)c(F)cc1OCC(=O)N(CC)CC
Rattus norvegicus [1]
  HD50: 10.6 mg/kg
Rattus norvegicus [2]
  Time: 133.9 s
[3]
  selectivity ratio: 9.6
[4]
  Activity: inactive
[5]
  TD50: 102 mg/kg

## CCN(CC)C(=O)COc1ccc(CC(=O)OC(C)C)c(F)c1OC
Rattus norvegicus [1]
  HD50: 17.9 mg/kg
Rattus norvegicus [2]
  Time: 91.4 s
[3]
  selectivity ratio: 7.9
[4]
  Activity: inactive
[5]
  TD50: 141 mg/kg

## CCN(CC)C(=O)COc1c(F)cc(CC(=O)OC(C)C)cc1OC
Rattus norvegicus [1]
  HD50: 14.2 mg/kg
Rattus norvegicus [2]
  Time: 79.5 s
[3]
  selectivity ratio: 12.4
[4]
  Activity: inactive
[5]
  TD50: 176 mg/kg

## CCCOC(=O)Cc1cc(OCC)c(OCC(=O)N(CC)CC)cc1F
Rattus norvegicus [1]
  HD50: 5.3 mg/kg
Rattus norvegicus [2]
  Time: 215.3 s
[3]
  selectivity ratio: 13.3
[4]
  Activity: inactive
[5]
  TD50: 70.5 mg/kg

## CCCOC(=O)Cc1ccc(OCC(=O)N(CC)CC)c(OCC)c1F
Rattus norvegicus [1]
  HD50: 16.6 mg/kg
Rattus norvegicus [2]
  Time: 81.4 s
[3]
  selectivity ratio: 10.4
[4]
  Activity: inactive
[5]
  TD50: 173 mg/kg

## CCOc1cc(CC(=O)OCC(F)(F)F)cc(F)c1OCC(=O)N(CC)CC
Rattus norvegicus [1]
  HD50: 14.6 mg/kg
Rattus norvegicus [2]
  Time: 76.6 s
[3]
  selectivity ratio: 8.7
[4]
  Activity: inactive
[5]
  TD50: 127 mg/kg

## CCOc1cc(CC(=O)OC(C)CC)c(F)cc1OCC(=O)N(CC)CC (stereo not given)
Rattus norvegicus [1]
  HD50: 8.4 mg/kg
Rattus norvegicus [2]
  Time: 145.3 s
[3]
  selectivity ratio: 10.8
[4]
  Activity: inactive
[5]
  TD50: 90.7 mg/kg

## CCOC(=O)Cc1cc(OCC)c(OCC(=O)N(CC)CC)cc1F
Rattus norvegicus [6]
  Activity: Active
Rattus norvegicus [7]
  Activity: inactive
Rattus norvegicus [1]
  HD50: 5.6 mg/kg
Rattus norvegicus [2]
  Time: 209.6 s
Rattus norvegicus [8]
  Activity: Active
Rattus norvegicus [9]
  Activity: Active
Rattus norvegicus [10]
  Activity: inactive
[3]
  selectivity ratio: 14.4
Rattus norvegicus [11]
  Activity: Active
[4]
  Activity: 56.6%
[5]
  TD50: 74.5 mg/kg
Rattus norvegicus [12]
  Activity: Active

## CCN(CC)C(=O)COc1ccc(CC(=O)OC(C)C(F)(F)F)c(F)c1OC (stereo not given)
Rattus norvegicus [1]
  HD50: 21.4 mg/kg
Rattus norvegicus [2]
  Time: 92.6 s
[3]
  selectivity ratio: 7.4
[4]
  Activity: inactive
[5]
  TD50: 158 mg/kg

## CCCOC(=O)Cc1ccc(OCC(=O)N(CC)CC)c(OC)c1F
Rattus norvegicus [1]
  HD50: 19.4 mg/kg
Rattus norvegicus [2]
  Time: 76.6 s
[3]
  selectivity ratio: 8.7
[4]
  Activity: inactive
[5]
  TD50: 169 mg/kg

## CCOC(=O)Cc1cc(F)c(OCC(=O)N(CC)CC)c(OC)c1
Rattus norvegicus [1]
  HD50: 17.2 mg/kg
Rattus norvegicus [2]
  Time: 72 s
[3]
  selectivity ratio: 13.9
[4]
  Activity: inactive
[5]
  TD50: 239 mg/kg

## CCN(CC)C(=O)COc1c(F)cc(CC(=O)OCC(F)(F)F)cc1OC
Rattus norvegicus [1]
  HD50: 16.9 mg/kg
Rattus norvegicus [2]
  Time: 71.1 s
[3]
  selectivity ratio: 9.8
[4]
  Activity: inactive
[5]
  TD50: 165 mg/kg

## CCOc1c(OCC(=O)N(CC)CC)ccc(CC(=O)OCC(F)(F)F)c1F
Rattus norvegicus [1]
  HD50: 21.1 mg/kg
Rattus norvegicus [2]
  Time: 83.3 s
[3]
  selectivity ratio: 7.7
[4]
  Activity: inactive
[5]
  TD50: 162 mg/kg

## CCCOC(=O)Cc1ccc(OCC(=O)N(CC)CC)c(OC)c1 [PROPANIDID]
Rattus norvegicus [6]
  Activity: Active
Rattus norvegicus [7]
  Activity: Active
Rattus norvegicus [1]
  HD50: 8.5 mg/kg
Rattus norvegicus [2]
  Time: 93.3 s
[3]
  selectivity ratio: 9.6
[4]
  Activity: inactive
[5]
  TD50: 80.6 mg/kg

## CCCOC(=O)Cc1cc(F)c(OCC(=O)N(CC)CC)c(OC)c1
Rattus norvegicus [1]
  HD50: 16.8 mg/kg
Rattus norvegicus [2]
  Time: 68.9 s
[3]
  selectivity ratio: 11.2
[4]
  Activity: inactive
[5]
  TD50: 188 mg/kg

## CCN(CC)C(=O)COc1cc(F)c(CC(=O)OCC(F)(F)F)cc1OC
Rattus norvegicus [1]
  HD50: 18.4 mg/kg
Rattus norvegicus [2]
  Time: 75.4 s
[3]
  selectivity ratio: 9.3
[4]
  Activity: inactive
[5]
  TD50: 171 mg/kg

## CCN(CC)C(=O)COc1c(F)cc(CC(=O)OC(C)C(F)(F)F)cc1OC (stereo not given)
Rattus norvegicus [1]
  HD50: 15.4 mg/kg
Rattus norvegicus [2]
  Time: 84.2 s
[3]
  selectivity ratio: 9.6
[4]
  Activity: inactive
[5]
  TD50: 148 mg/kg

## CCOc1cc(CC(=O)OC(C)C)c(F)cc1OCC(=O)N(CC)CC
Rattus norvegicus [1]
  HD50: 4.8 mg/kg
Rattus norvegicus [2]
  Time: 226.2 s
[3]
  selectivity ratio: 12.7
[4]
  Activity: inactive
[5]
  TD50: 60.9 mg/kg

## CCN(CC)C(=O)COc1cc(F)c(CC(=O)OC(C)C(F)(F)F)cc1OC (stereo not given)
Rattus norvegicus [1]
  HD50: 15.6 mg/kg
Rattus norvegicus [2]
  Time: 88.9 s
[3]
  selectivity ratio: 9.7
[4]
  Activity: inactive
[5]
  TD50: 151 mg/kg

## CCOc1cc(CC(=O)OC(C)C)cc(F)c1OCC(=O)N(CC)CC
Rattus norvegicus [1]
  HD50: 19.5 mg/kg
Rattus norvegicus [2]
  Time: 92.7 s
[3]
  selectivity ratio: 13.1
[4]
  Activity: inactive
[5]
  TD50: 256 mg/kg

## CCOC(=O)Cc1ccc(OCC(=O)N(CC)CC)c(OC)c1F
Rattus norvegicus [1]
  HD50: 21.6 mg/kg
Rattus norvegicus [2]
  Time: 89.8 s
[3]
  selectivity ratio: 9.3
[4]
  Activity: inactive
[5]
  TD50: 201 mg/kg

## CCOC(=O)Cc1ccc(OCC(=O)N(CC)CC)c(OCC)c1F
Rattus norvegicus [1]
  HD50: 19.8 mg/kg
Rattus norvegicus [2]
  Time: 77.7 s
[3]
  selectivity ratio: 10.1
[4]
  Activity: inactive
[5]
  TD50: 200 mg/kg
